Experimental data as given in patent US11827628B2, “Compositions and methods for inhibition of the JAK pathway” (Rigel Pharmaceuticals, Inc., priority 2005, dated 2023).
Where a name gives a salt, the structure may show the parent alone. Read-outs that look alike come from different tables or passages of the source. One block for each compound: values may come before it.

Assays:
Primary human T-cells = assay: Primary Human T-Cell Proliferation Assay Stimulated with IL-2 (CellTiter-Glo); type: cell-based; conditions: read-out: IC50, Example 42
Summary of the method: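 Peripheral blood T-cells pre-activated with anti-CD3/anti-CD28 and IL-2 were washed free of IL-2, then cultured with compound plus IL-2 for 72 hours at 37° C, duplicate wells. Viability read as ATP by CellTiter-Glo luminescence; IC50 reported.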

[1] = tested on: IL-4 stimulated expression of CD23 in human Ramos B cells (JAK-1 and JAK-3); assay: Assay for Ramos B-Cell Line Stimulated with IL-4 (CD23 upregulation, FACS); type: cell-based; conditions: read-out: IC50, Example 41
Summary of the method: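 Log-phase Ramos cells, 1 h compound pre-incubation at 37 °C; IL-4 50 units/mL final, 20-24 h; CD23-PE stain, FACS; IC50.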

[2] = primary human T-cells stimulated with IL-2, proliferation
[3] = Ramos B cells stimulated with IL-4, CD23 expression by FACS
[4] = primary human T-cell proliferation stimulated with IL-2
[5] = Ramos B-cell line stimulated with IL-4, CD23 expression by FACS
[6] = Homo sapiens, T-cell, primary human T-cells stimulated with IL-2, proliferation
[7] = Homo sapiens, Ramos, Ramos B cells stimulated with IL-4, CD23 expression by FACS
[8] = Homo sapiens, T-cell, primary human T-cell proliferation stimulated with IL-2
[9] = Homo sapiens, Ramos, Ramos B-cell line stimulated with IL-4, CD23 expression by FACS

Compound: Cc1ccc(Nc2ncc(F)c(Nc3ccc(Cn4ccnc4C)cc3)n2)cc1S(N)(=O)=O [III-91, N2-(3-Aminosulfonyl-4-methylphenyl)-5-fluoro-N4-[4-(2-methyl-1-imidazolylmethyl)phenyl]-2,4-pyrimidinediamine]
- IC50 (Primary human T-cells; [2]): 467 nM
- IC50 [1, 3]: 143 nM

Compound: N4-(4-Acetylthiomethylcarbonylphenyl)-N2-(3-aminosulfonylphenyl)-5-fluoro-2,4-pyrimidinediamine [IX-42]
- IC50 (Primary human T-cells; [2]): 2170 nM
- IC50 [1, 3]: 292 nM

Compound: COc1cc(Nc2ncc(F)c(Nc3ccc(OCC#N)c(C)c3)n2)ccc1S(N)(=O)=O [Compound I-29, N2-(4-Aminosulfonyl-3-methoxy)phenyl-N4-(4-cyanomethoxy-3-methyl)phenyl-5-fluoro-2,4-pyrimidinediamine]
- IC50 (Primary human T-cells; [4]): 502 nM
- IC50 [1, 5]: 120 nM

Compound: CNS(=O)(=O)c1cc(Nc2ncc(F)c(Nc3ccc(-c4ccccn4)c(OCCl)c3)n2)ccc1C [IX-54, 5-Fluoro-N2-[3-N-(methyl)aminosulfonyl-4-methylphenyl]-N4-[4-(2-pyridinyl)-3-chloromethyleneoxyphenyl]-2,4-pyrimidinediamine]
- IC50 (Primary human T-cells; [2]): 2470 nM
- IC50 [1, 3]: 174 nM

Compound: NS(=O)(=O)c1ccc(Nc2ncc(F)c(Nc3ccc(OCc4ccccn4)c(Cl)c3)n2)cc1 [Compound I-175, N2-(4-Aminosulfonylphenyl)-5-fluoro-N4-[4-(2-pyridinyl)-3-chloromethyleneoxyphenyl]-2,4-pyrimidinediamine]
- IC50 (Primary human T-cells; [4]): 3080 nM
- IC50 [1, 5]: 147 nM

Compound: Cc1noc(COc2cccc(Nc3nc(Nc4ccc(S(N)(=O)=O)cc4)ncc3F)c2)n1 [Compound I-253, N2-(4-Aminosulfonylphenyl)-5-fluoro-N4-[3-(3-methyl-1,2,4-oxadiazol-5-yl)methyleneoxyphenyl]-2,4-pyrimidinediamine]
- IC50 (Primary human T-cells; [4]): 2560 nM
- IC50 [1, 5]: 127 nM

Compound: NS(=O)(=O)c1cccc(Nc2ncc(F)c(Nc3ccc(-c4ccccn4)c(OCF)c3)n2)c1 [Compound I-169, N2-(3-Aminosulfonylphenyl)-5-fluoro-N4-[4-(2-pyridinyl)-3-fluoromethyleneoxyphenyl]-2,4-pyrimidinediamine]
- IC50 (Primary human T-cells; [4]): 137 nM
- IC50 [1, 5]: 54.6 nM

Compound: CC(=O)N1CCN(C(=O)c2ccc(Nc3nc(Nc4ccc(C)c(S(N)(=O)=O)c4)ncc3F)cc2)CC1 [IX-24, N4-[4-(1-Acetyl-4-piperizinyl)carbonylphenyl]-N2-(3-Aminosulfonyl-4-methylphenyl)-5-fluoro-2,4-pyrimidinediamine]
- IC50 (Primary human T-cells; [2]): 38400 nM
- IC50 [1, 3]: 6330 nM

Compound: Cc1nccn1Cc1ccc(Nc2nc(Nc3cccc(S(N)(=O)=O)c3)ncc2F)cc1 [III-94, N2-(3-Aminosulfonylphenyl)-5-fluoro-N4-[4-(2-methyl-1-imidazolylmethyl)phenyl]-2,4-pyrimidinediamine]
- IC50 (Primary human T-cells; [2]): 716 nM
- IC50 [1, 3]: 162 nM

Compound: NS(=O)(=O)c1cccc(Nc2ncc(F)c(Nc3ccc(OCc4ccncc4)cc3)n2)c1 [Compound I-193, N2-(3-Aminosulfonylphenyl)-5-fluoro-N4-[4-(4-pyridinyl)methyleneoxyphenyl]-2,4-pyrimidinediamine]
- IC50 (Primary human T-cells; [4]): 55.6 nM
- IC50 [1, 5]: 38.2 nM

Compound: Cc1cc(Nc2nc(Nc3ccc(C)c(S(N)(=O)=O)c3)ncc2F)ccc1NC(=O)CC#N [Compound I-81, N2-(3-Aminosulfonyl-4-methylphenyl)-5-fluoroN4-[3-methyl4-(N-cyanoacetyl)aminophneyl]-2,4-pyrimidinediamine]
- IC50 (Primary human T-cells; [4]): 957 nM
- IC50 [1, 5]: 360 nM

Compound: Cc1cc(Nc2nc(Nc3ccc(S(N)(=O)=O)cc3)ncc2F)ccc1OCc1ccccn1 [Compound I-176, N2-(4-Aminosulfonylphenyl)-5-fluoro-N4-[4-(2-pyridinyl)-3-methylmethyleneoxyphenyl]-2,4-pyrimidinediamine]
- IC50 (Primary human T-cells; [4]): 1690 nM
- IC50 [1, 5]: 259 nM

Second part, led by results:

- IC50 ([1]; Ramos B-cell line stimulated with IL-4, CD23 expression by FACS, Hydrochloride Salt): 131 nM
Compound: NS(=O)(=O)c1cccc(Nc2ncc(F)c(Nc3ccc(Cc4ccncc4)cc3)n2)c1 [III-73, N2-(3-Aminosulfonylphenyl)-5-fluoro-N4-[4-(4-pyridylmethyl)phenyl]-2,4-pyrimidinediamine Hydrochloride Salt]
- IC50 (Primary human T-cells; primary human T-cell proliferation stimulated with IL-2, Hydrochloride Salt): 434 nM

- IC50 [1, 7]: 147 nM
Compound: C#CCN(CC#C)c1ccc(Nc2nc(Nc3ccc(C)c(S(N)(=O)=O)c3)ncc2F)cc1 [VI-67, N2-(3-Aminosulfonyl-4-methylphenyl)-N4-{4-[bis(prop-2-ynyl)amino]phenyl}-5-fluoro-2,4-pyrimidinediamine]
- IC50 (Primary human T-cells; [6]): 718 nM

- IC50 [1, 7]: 45 nM
Compound: Cc1cnc(Nc2ccc(S(N)(=O)=O)cc2)nc1Nc1ccc2c(c1)N(C)C(=O)CS2 [VII-34, N2-(4-Aminosulphonylphenyl)-5-methyl-N4-(4-methyl-3-oxo-benzo[1,4]thiazin-6-yl)-2,4-pyrimidinediamine]
- IC50 (Primary human T-cells; [6]): 22.5 nM

- IC50 [1, 7]: 68.5 nM
Compound: Cc1ccc(Nc2nc(Nc3cccc(S(N)(=O)=O)c3)ncc2F)cc1C#N [VI-99, N2-(3-Aminosulfonylphenyl)-N4-(3-cyano-4-methylphenyl)-5-fluoro-2,4-pyrimidinediamine]
- IC50 (Primary human T-cells; [6]): 617 nM

- IC50 [1, 9]: 473 nM
Compound: Cc1ccc(Nc2ncc(F)c(Nc3ccc(CNC(N)=O)cc3)n2)cc1S(N)(=O)=O [III-34, N4-(4-Aminocarbonylaminomethylphenyl)-N2-(3-aminosulfonyl-4-methylphenyl)-5-fluoro-2,4-pyrimidinediamine]
- IC50 (Primary human T-cells; [8]): 381 nM

- IC50 [1, 7]: 315 nM
Compound: Cc1ccc(Nc2ncc(F)c(Nc3cccc4ncccc34)n2)cc1S(N)(=O)=O [VII-67, N2-(3-Aminosulfonyl-4-methylphenyl)-5-fluoro-N4-(quinolin-5-yl)-2,4-pyrimidinediamine]
- IC50 (Primary human T-cells; [6]): 768 nM

- IC50 [1, 7]: 206 nM
Compound: NS(=O)(=O)c1cc(Nc2ncc(F)c(Nc3ccc(Cl)c(Cl)c3)n2)ccc1Cl [VI-3, N2-(3-Aminosulfonyl-4-chlorophenyl)-N4-(3,4-dichlorophenyl)-5-fluoro-2,4-pyrimidinediamine]
- IC50 (Primary human T-cells; [6]): 8790 nM

- IC50 [1, 7]: 110 nM
Compound: Cc1ccc(Nc2ncc(F)c(Nc3ccc(CCCCF)cc3)n2)cc1S(N)(=O)=O [VI-93, N2-(3-Aminosulfonyl-4-methylphenyl)-5-fluoro-N4-[4-(4-fluorobutyl)phenyl]-2,4-pyrimidinediamine]
- IC50 (Primary human T-cells; [6]): 560 nM

- IC50 [1, 7]: 739 nM
Compound: CC(C)(C)c1ccc(Nc2nc(Nc3ccc(Cl)c(S(N)(=O)=O)c3)ncc2F)cc1 [VI-43, N2-(3-Aminosulfonyl-4-chlorophenyl)-N4-(4-tert-butylphenyl)-5-fluoro-2,4-pyrimidinediamine]
- IC50 (Primary human T-cells; [6]): 6140 nM

- IC50 [1, 9]: 157 nM
Compound: CN(C)C(=O)OCCc1ccc(Nc2nc(Nc3ccc(Cl)c(S(N)(=O)=O)c3)ncc2F)cc1 [III-58, N2-(3-Aminosulfonyl-4-chlorophenyl)-N4-{4-[2-(dimethylaminocarbonyloxy)ethyl]phenyl}-5-fluoro-2,4-pyrimidinediamine]
- IC50 (Primary human T-cells; [8]): 1260 nM

- IC50 [1, 7]: 77.5 nM
Compound: COc1c(C)cc(Nc2ncc(F)c(N[C@H]3[C@@H](C(N)=O)[C@@H]4C=C[C@H]3C4)n2)cc1S(N)(=O)=O [VII-83, (1R,2R,3S,4S)N2-(3-Aminosulfonyl-4-methoxy-5-methylphenyl)-N4-(3-aminocarbonylbicyclo[2.2.1]hept-5-ene-2-yl)-5-fluoro-2,4-pyrimidinediamine]
- IC50 (Primary human T-cells; [6]): 937 nM

- IC50 [1, 3]: 342 nM
Compound: NS(=O)(=O)c1cc(Nc2ncc(F)c(Nc3ccc(C(F)(F)F)cc3)n2)ccc1Cl [VI-41, N2-(3-Aminosulfonyl-4-chlorophenyl)-5-fluoro-N4-(4-trifluorophenyl)-2,4-pyrimidinediamine]
- IC50 (Primary human T-cells; [2]): 6240 nM
